One assay deals with A549 (Lung cancer cell). The experiment in a line: MTT cytotoxicity assay, A549. The assay is classed as cell-based. The settings on record: Homo sapiens; 24-hour MTT, A549 cell line; read-out: IC50 against A549. The procedure:
(§1) Cytotoxicity studies were carried out using the MTT method, based on the principle of forming purple formazan salt. The MTT procedure was performed using a CO2 incubator during a 24-hour incubation period, as described in our previous publications. The results were detected with a microplate reader.
(§2) For activity studies, the 24-hour MTT procedure was applied. A549 (Lung cancer cell) (ATCC-CRM-CCL-185), MCF-7 (breast cancer cell) (ATCC-HTB-22), and NIH3T3 (normal fibroblast cell) (ATCC-CRL-1658) were used. Looking at the activity results, compound 4d is promising. […] The value shown against the MCF-7 cell line is especially important. Therefore, compound 4d was subjected to the aromatase enzyme inhibition test in vitro. When the structure of compound 4d was examined, unlike other compounds, it carried a nitro substitution in the fourth position of the phenyl ring.
(Tetrazolium assays rely on reduction of a dye to a coloured formazan, in cell work by metabolically active cells.)

Assay [1] concerns MCF-7 (breast cancer cell). The experiment in a line: MTT cytotoxicity assay, MCF-7. The following applies: Homo sapiens, MCF7; 24-hour MTT, MCF-7 cell line; read-out: IC50 against MCF-7. The assay is classed as cell-based. The procedure: as §1, §2
Assay [2] relates to NIH3T3 (normal fibroblast cell). The experiment in a line: MTT cytotoxicity assay, NIH3T3 healthy cell line. It counts as cell-based. The settings on record: Mus musculus, 24-hour MTT, read-out: IC50 against NIH3T3. The procedure: as §1, §2
The next assay concerns DNA synthesis. The experiment in a line: BrdU analysis (DNA synthesis inhibition). It counts as cell-based. The procedure:
Three different incubation periods were selected for the experiment, which was carried out according to the kit procedure. (BioVision, BrdU Cell Proliferation Assay Kit (Fluorometric)). Test results performed at 24-hour, 48-hour, and 72-hour periods were based on fluorimetric measurement of the color change caused by the addition of the stop solution. It enables us to find out where the anticancer effect of anticancer compounds originates from. In other words, the following question persists: by affecting which phase in the cell cycle is DNA synthesis inhibited? BrdU analysis is important to find the answer to this question.
With the Brdu studies, the potential of compound 4d to inhibit DNA synthesis was examined in 24-, 48- and 72-hour periods. […] Since DNA synthesis occurs in the […] of the cell cycle, it would be a correct approach to say that the compounds affect the G2 phase.

The target of the next assay is T1, Aromatase (CYP19A) (Homo sapiens, UniProt P11511).
T1 construct: purchased BioVision
T1 sequence (P11511 1-503): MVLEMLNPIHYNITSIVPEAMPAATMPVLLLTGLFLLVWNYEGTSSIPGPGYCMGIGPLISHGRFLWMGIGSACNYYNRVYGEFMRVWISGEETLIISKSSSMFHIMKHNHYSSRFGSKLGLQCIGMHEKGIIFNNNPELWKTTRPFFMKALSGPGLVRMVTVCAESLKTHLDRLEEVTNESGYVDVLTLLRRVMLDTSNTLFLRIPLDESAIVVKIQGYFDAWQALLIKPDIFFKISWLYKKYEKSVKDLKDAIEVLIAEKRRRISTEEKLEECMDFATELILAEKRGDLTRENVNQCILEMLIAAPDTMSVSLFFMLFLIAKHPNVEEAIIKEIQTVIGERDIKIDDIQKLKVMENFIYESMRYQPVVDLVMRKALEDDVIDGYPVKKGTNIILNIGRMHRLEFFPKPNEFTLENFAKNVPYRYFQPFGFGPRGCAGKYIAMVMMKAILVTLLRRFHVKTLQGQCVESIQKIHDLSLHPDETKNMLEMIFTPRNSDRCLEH
Kind of assay: Aromatase (CYP19A) inhibitor screening kit (fluorometric). The assay is classed as biochemical. The following applies: read-out: IC50 aromatase enzyme inhibition. On the procedure: In the experiment performed according to the kit procedure, IC50 values of the compound were calculated from the results obtained with the help of a microplate reader (BioVision, Aromatase (CYP19A) Inhibitor Screening Kit (Fluorometric)).

Turning to `CCn1c(SCC(=O)c2ccc([N+](=O)[O-])cc2)nnc1-c1nc[nH]c1C` [Compound 4d, 2-((4-ethyl-5-(5-methyl-1H-imidazol-4-yl)-4H-1,2,4-triazol-3-yl)thio)-1-(4-nitrophenyl) ethan-1-one], the IC50 with A549 (Lung cancer cell) was found to be 17.2 µM; in assay [1] it was 6.73 µM; in assay [2], 13.2 µM; on Aromatase (CYP19A), 0.097 µM. For the same compound, the DNA synthesis inhibition in the assay with DNA synthesis (24-hour incubation, 2xIC50 dose) was found to be 63.3%; in the assay on DNA synthesis (24-hour incubation, IC50/2 dose), 16.1%; in the assay on DNA synthesis (24-hour incubation, IC50 dose), 28.1%; in the assay on DNA synthesis (48-hour incubation, 2xIC50 dose) it was 79.0%; in the assay on DNA synthesis (48-hour incubation, IC50/2 dose), 40.4%; in the assay with DNA synthesis (48-hour incubation, IC50 dose) it was 77.5%. The DNA synthesis inhibition with DNA synthesis (72-hour incubation, 2xIC50 dose) was determined as 92.4%; with DNA synthesis (72-hour incubation, IC50/2 dose), 77.8%; in the assay on DNA synthesis (72-hour incubation, IC50 dose), 80.6%.
On to `CCn1c(SCC(=O)c2ccc(C)cc2C)nnc1-c1[nH]cnc1C` [Compound 4h], for which the results for the half-maximal inhibitory concentration (IC50) (in the assay on A549 (Lung cancer cell); in assay [1]; in assay [2]) were 17.2 µM, greater than 100 µM and 27.2 µM, respectively.
The like results for `CCn1c(SCC(=O)c2ccc(F)cc2F)nnc1-c1[nH]cnc1C` [Compound 4i] were, in that order, 86.2 µM, 64.4 µM and 27.2 µM.
The matching figures for `CCn1c(SCC(=O)c2ccc(Cl)cc2Cl)nnc1-c1[nH]cnc1C` [Compound 4j]: 66.1 µM, 28.9 µM and 18.4 µM.

The term IC50 denotes the concentration that gives 50% inhibition.

The values are drawn from PMC12606616, “Synthesis, Characterization, and In Vitro and In Silico Studies of New Triazole Derivatives as Aromatase Inhibitors” (Medicinal Chemistry (Shariqah (United Arab Emirates), 2024).
